# From patent US9879043B1, “Synthesis of non-natural cofactor analogs of S-adenosyl-L-methionine using methionine adenosyltransferase” (University of Kentucky Research Foundation, priority 2013, dated 2018)
# Experiments:
# Assay type in all cases: biochemical
# [1] = target: T1, Methanocaldococcus jannaschii MAT (mMAT) (Methanocaldococcus jannaschii, UniProt Q58605); conditions: 2 mM Met analog, 1 mM ATP, 5 μM MAT, pH 8, 4 h, 65° C.; average of two assays
# T1 sequence (Q58605 1-406): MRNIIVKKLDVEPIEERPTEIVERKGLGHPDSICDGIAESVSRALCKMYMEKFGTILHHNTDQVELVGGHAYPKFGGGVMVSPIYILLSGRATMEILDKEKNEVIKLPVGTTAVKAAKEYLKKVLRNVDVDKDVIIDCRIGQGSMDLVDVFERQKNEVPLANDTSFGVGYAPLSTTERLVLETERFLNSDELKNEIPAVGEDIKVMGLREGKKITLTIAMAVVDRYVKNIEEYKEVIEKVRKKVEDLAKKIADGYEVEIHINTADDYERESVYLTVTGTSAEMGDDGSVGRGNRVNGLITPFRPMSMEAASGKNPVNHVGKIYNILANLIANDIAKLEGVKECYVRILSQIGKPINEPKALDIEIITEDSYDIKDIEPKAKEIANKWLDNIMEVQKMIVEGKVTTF
# Description: Standard uniform assay conditions (2 mM Met analog, 1 mM ATP, 5 μM MAT, 25 mM Tris, 5 mM MgCl2, 50 mM KCl, pH 8, 4 h) were adopted to facilitate this broad assessment. For the thermophilic counterpart (mMAT), reactions were conducted at 65° C., while all other reactions were incubated at 37° C. Production of SAM analogs was determined by an RP-HPLC end point assay to afford complete analysis of the desired SAM analog and/or any corresponding degradation products known to directly derive from the desired SAM analog intermediate.
# To monitor MAT reactions, analytical RP HPLC employed a Luna C18 column (5 μm, 4.6 mm×250 mm; Phenomenex, Torrance, Calif., USA) [gradient of 10% B to 40% B over 15 min, 40% B to 75% B over 5 min (A=10 mM NaH2PO4, 5 mM octane sulfonic acid, pH was adjusted to 3.5 using phosphoric acid; B=acetonitrile) flow rate=1 mL min^−1; A254].
# The sMAT and mMAT reactions were conducted at 65° C. while hMATs and eMAT were incubated at 37° C. Reactions were quenched by adding an equal volume of methanol followed by centrifugation (10,000×g for 15 min) to remove the precipitated protein and product formation for each reaction was subsequently analyzed by RP-HPLC using Method D (FIG. 15, first column). For each reaction, percent yield was based upon the integration of species at 254 nm and calculated by dividing the integrated area of product and/or decomposed product by the sum of integrated area of product and/or decomposed product and the remaining substrate. The assays were repeated twice under identical conditions, and Table 2 (and FIG. 5) represents an average value of two assays. The inclusion of adenine and 5′-R-thio-5′-adenosine in these calculations is based upon the established SAM and ATP chemical decomposition pathways which indicate adenine and 5′-R-thio-5′-adenosine to only derive from SAM (not ATP). All putative products were subsequently confirmed by high resolution electrospray ionization (ESI) mass spectra with positive (+) and/or negative (−) mode.
# [2] = target: human MAT II catalytic alpha subunit alone (hMAT2A) (Homo sapiens, UniProt P31153); assay: MAT assay, turnover of S/Se-Met analogs to S(Se)AM analogs (RP-HPLC end point); conditions: 2 mM Met analog, 1 mM ATP, 5 μM MAT, pH 8, 4 h, 37° C., average of two assays
# [3] = target: human MAT II catalytic alpha and regulatory beta subunit (hMAT2) (Homo sapiens, UniProt P31153); assay: as above; conditions: 2 mM Met analog, 1 mM ATP, 5 μM MAT, pH 8, 4 h, 37° C.; average of two assays
# [4] = target: human MAT I catalytic subunit alpha (hMAT1A) (Homo sapiens, UniProt Q00266); assay: as above; conditions: 2 mM Met analog, 1 mM ATP, 5 μM MAT, pH 8, 4 h, 37° C.; average of two assays
smiles,measurement,setting,value
"CCSCC[C@H](N)C(=O)O [compound 3, (2S)-2-amino-4-(ethylsulfanyl)butanoic acid]",Percentage Turn-over mMAT,[1],94%
same,Percentage Turn-over hMAT2A,[2],90%
same,Percentage Turn-over hMAT2A,[2]; listed as ethionine,~100%
same,Percentage Turn-over hMAT2,[3],88%
same,Percentage Turn-over hMAT1A,[4],75%
